Earlier results on two compounds are cited in patent publication US7872019B2, “Polymorphs and amorphous form of (S)-(+)-clopidogrel bisulfate” (Cadila Healthcare Limited, priority 2003, dated 2011).

SMILES strings stand for the structures.

In one data set the test system is platelet aggregation. The settings on record: comparison of the two enantiomers, in words.
The conditions of data set [1]: comparison of the two enantiomers, in words.

As for `COC(=O)[C@@H](c1ccccc1Cl)N1CCc2sccc2C1` (single isomer, unassigned) [levorotatory enantiomer of (I)], the antiagregant platelet activity entry with platelet aggregation is “less active”. Also, the tolerance result in data set [1] is listed as “less tolerated”.

Take `COC(=O)[C@H](c1ccccc1Cl)N1CCc2sccc2C1` [dextrorotatory enantiomer of formula (I) of Clopidogrel]: the antiagregant platelet activity entry in the data set with platelet aggregation is on record as “excellent antiagregant platelet activity”.
